Experimental data from patent publication US20110033516A1, “METHODS AND COMPOSITIONS FOR BONE HEALING BY PERIOSTIN” (Medical University of South Carolina, priority 2009, published 2011).
“Also recorded” adds a separate entry of the source.

B1: TGFβ3: exogenous factor (transforming growth factor) tested in the 3D collagen gel migration assay (protein, UniProt P10600 301-412, looked up)
Transforming growth factor …: ALDTNYCFRNLEENCCVRPLYIDFRQDLGWKWVHEPKGYYANFCSGPCPYLRSADTTHSTVLGLYNTLNPEASASPCCVPQDLEPLTILYYVGRTPKVEQLSNMVVKSCKCS
B2: periostin: Full length recombinant mouse periostin (a.k.a. OSF-2) purchased from R&D systems; secreted 90 kDa matricellular protein (protein, UniProt Q62009 1-838, looked up)
chain: MVPLLPLYALLLLFLCDINPANANSYYDKVLAHSRIRGRDQGPNVCALQQILGTKKKYFSSCKNWYQGAICGKKTTVLYECCPGYMRMEGMKGCPAVMPIDHVYGTLGIVGATTTQHYSDVSKLREEIEGKGSYTYFAPSNEAWENLDSDIRRGLENNVNVELLNALHSHMVNKRMLTKDLKHGMVIPSMYNNLGLFINHYPNGVVTVNCARVIHGNQIATNGVVHVIDRVLTQIGTSIQDFLEAEDDLSSFRAAAITSDLLESLGRDGHFTLFAPTNEAFEKLPRGVLERIMGDKVASEALMKYHILNTLQCSEAITGGAVFETMEGNTIEIGCEGDSISINGIKMVNKKDIVTKNGVIHLIDEVLIPDSAKQVIELAGKQQTTFTDLVAQLGLASSLKPDGEYTLLAPVNNAFSDDTLSMDQRLLKLILQNHILKVKVGLSDLYNGQILETIGGKQLRVFVYRTAICIENSCMVRGSKQGRNGAIHIFREIIQPAEKSLHDKLRQDKRFSIFLSLLEAADLKDLLTQPGDWTLFAPTNDAFKGMTSEERELLIGDKNALQNIILYHLTPGVYIGKGFEPGVTNILKTTQGSKIYLKGVNETLLVNELKSKESDIMTTNGVIHVVDKLLYPADIPVGNDQLLELLNKLIKYIQIKFVRGSTFKEIPMTVYTTKIITKVVEPKIKVIQGSLQPIIKTEGPAMTKIQIEGDPDFRLIKEGETVTEVIHGEPVIKKYTKIIDGVPVEITEKQTREERIITGPEIKYTRISTGGGETGETLQKFLQKEVSKVTKFIEGGDGHLFEDEEIKRLLQGDTPAKKIPANKRVQGPRRRSREGRSQ
modifications: full-length
notes: Full length recombinant mouse periostin (a.k.a. OSF-2) purchased from R&D systems; secreted 90 kDa matricellular protein

Columns and labels:
ROS cell line = test: Cell adhesion assay, ROS cell line; assay type: cell-based, rat; settings: assayed in triplicate, 1% BSA negative control
Method: FIGS. 16A-B Cell adhesion assays. (A) Each of the 55 peptides (20 mers) of periostin was assayed in triplicate by a cell adhesion assay using the ROS cell line. Collagen I and poly-L-lysine were used as positive controls, whereas 1% BSA coated wells were negative controls for non-specific binding. […] These subtle differences may be attributed to different integrin profiles of the two cell types.
The 55 peptides in Table 1 have been studied in a cell adhesion assay using the ROS cell line.
These assays will be performed as described. Briefly, titrated amounts of purified matrix protein (or peptides or fragments) ranging from 10 ng/ml to 100 μg/ml will be used to coat the wells of a 96-well dish. Poly-L-lysine (1.5 μg/ml) and 1% BSA will be used as positive and negative controls for adhesion, respectively. The wells are blocked with 1% BSA to coat any of the charged plastic surface not coated by the substrates. Finally the cells are allowed to adhere to the substrates at 37° C. for 1-2 hours depending on cell type. The cells are then gently washed to remove those that are not adherent and retain those that are adherent. Then the cells remaining are exposed to 4% PFA to fix them and they are subsequently stained with 0.25% crystal violet for 30 min. Plates are washed and air-dried. At this point the cells can be visualized and images digitally captured. The amount of stain on the cells is solubilized by 2% sodium deoxycholate for 10 min. and absorbance is measured at 540 nm wavelength. This gives quantitative data directly related to the number of adherent cells. Another assessment can be done by digitally capturing the cells in each well and analyzing their spreading by morphometric analysis.

primary fibroblasts = test: 3D collagen gel migration assay with hanging drop aggregates; assay type: cell-based; settings: aggregates of 50,000 cells/20 μl on collagen I hydrogels (1.5 mg/ml), exogenous factors
Text: FIG. 11 Periostin promotes migration of primary fibroblasts in 3D collagen gel assays. […] Pictures above the graph lines show representative images of the stimulated cultures with the cell migratory boundaries outlined.
The 3-D migration and invasion assay will use the same cells but aggregate them using a hanging drop method overnight. […] The number of cells that have migrated out from the aggregate and the distance migrated on the top of the gel are the first order parameters of migration.

[1] = tested on: Mesenchyme from periostin null mice; test: Hanging drop culture of periostin null mesenchyme, collagen expression by immunoblotting; assay type: cell-based, mouse; settings: purified periostin protein 10 μg/ml in culture medium, 7 days
Method: FIGS. 3A-B Periostin regulates collagen synthesis. Mesenchyme from periostin null mice was placed in hanging drop cultures and incubated with either purified periostin protein (10 μg/ml) or PBS. Mesenchyme from wild-type mice was used as control tissue. After 7 days, tissues were harvested and analyzed for periostin and collagen expression by immunoblotting. […] Actin is used for protein normalization. (B) Graphical representation of Western analyses presented in panel A obtained from densitometric analyses using NIH image software. Values obtained were compared against wild-type values (baseline) and represented as relative percent change. * denotes p<0.05.
Studies were carried out to examine the affect of periostin on fibroblast differentiation. Through these studies, it was ascertained that periostin was a crucial regulator of collagen I synthesis and maturation (fibrillogenesis) and promoted fibroblast differentiation (FIGS. 3A-B). […] Within the bone, expression of these matrix components was seen primarily in the periosteal cells. To ascertain the functional significance of periostin on bone growth, gene targeted mice were generated. These mice are viable and able to reproduce. However, significant defects have been observed in the material properties of various connective tissues. […]

[2] = tested on: fibula osteotomy in the periostin null mouse; test: Fibula osteotomy model of bone fracture healing, X-ray analysis; assay type: in vivo; settings: three weeks after fibula osteotomy, hydrogel delivery at the break point
Method: FIGS. 8A-C Periostin KO mice have defects in bone regeneration. X-ray analyses of bone healing three weeks after fibula osteotomies. […] (B,C) Fibula osteotomies were performed in the periostin null background and analyzed by X-ray three weeks later. In the absence of periostin there is no apparent callus formed and no fibula fusion (C).
To examine the role of periostin as a mediator of bone healing following injury, a novel in vivo murine fibula osteotomy model was developed (FIGS. 6A-B). The generation of this model system in the mouse has significant advantages over the more standard tibia and femur bone break models. Currently, the main disadvantage of the tibia and femur models is their necessity for an intermedullary stabilizer (i.e., metal rods) due to these bones being weight bearing. These rods make various analyses such microCT, MTS and histological examination either exceedingly difficult or totally impossible. Because the fibula is a non-weight bearing bone, intermedullary stabilization is not required. As such, analyses such as microCT, MTS and histology are more easily and reproducibly performed in the fibula osteotomy model. […]

rat osteoblast cells = test: Standard wounding / scratch migration assay; assay type: cell-based; settings: dishes coated with plastic, collagen, or collagen plus titrating amounts of periostin; BMP-2 titrated; up to 48 hours
Method: Tissue culture dishes were coated with either collagen, or collagen with titrating amounts of periostin. Cells were plated and allowed to adhere for 24 hours. A standard “wounding” or “scratch assay” was performed and measurements of cell migration into the scratch area were obtained.
The ability of periostin to promote migration of osteoblast cells in culture was ascertained utilizing a standard “wounding” assay. For this, a monolayer of rat osteoblast cells was plated on either plastic, collagen or collagen plus titrating amounts of periostin. A small scratch was made (with a P200 tip) through the middle of the monolayer and the cells were allowed to migrate into the “wounded” area for up to 48 hours.

fibroblasts = test: Collagen deposition by fibroblasts after periostin exposure; assay type: cell-based; settings: following periostin exposure/incubation

Row | Molecule | cell adhesion (binding) to peptide (ROS cell line) | further results
1 | TIGGKQLRVFVYRTAICIEN (listed as Mus musculus) [Peptide 30, murine periostin peptide] | significant binding | –
2 | IGCEGDSISINGIKMVNKKD (listed as Mus musculus) [Peptide 22, murine periostin peptide] | significant binding | –
3 | HSHMVNKRMLTKDLKHGMVI (listed as Mus musculus) [Peptide 11, murine periostin peptide] | significant binding | –
4 | HSRIRGRDQGPNVCALQQIL (listed as Mus musculus) [Peptide 2, murine periostin peptide] | significant binding | –
5 | DQRLLKLILQNHILKVKVGL (listed as Mus musculus) [Peptide 28, murine periostin peptide] | significant binding | –
6 | RGLENNVNVELLNALHSHMV (listed as Mus musculus) [Peptide 10, murine periostin peptide] | significant binding | –
7 | HGMVIPSMYNNLGLFINHYP (listed as Mus musculus) [Peptide 12, murine periostin peptide] | significant binding | –
8 | B1 | – | fold-change in area of migration (primary fibroblasts): promoted migration
9 | B2 | – | expression of collagen Ia1 and Ia2 [1]: induces expression of collagen Ia1 and Ia2; bone healing (callus formation, fibula fusion) by X-ray [2]: “rescued” the null phenotype; also recorded: pronounced healing is evident; cell migration into the scratch area (rat osteoblast cells): highest degree of migration; also recorded: most potent stimulation of migration; fold-change in area of migration (primary fibroblasts): highest degree of migration; collagen deposition by fibroblasts (fibroblasts): increased in a dose-dependent manner
